The values below come from ChEMBL document CHEMBL2417492, “Structural studies of β-hairpin peptidomimetic antibiotics that target LptD in Pseudomonas sp” (2013).

≈ marks a conversion by molar mass, not a printed value. Where only a bound is given, the exact number is not on record here.

This assay concerns Pseudomonas aeruginosa. The experiment in a line: Antibacterial activity against Pseudomonas aeruginosa ATCC 27853 assessed as growth inhibition. The assay is classed as functional.
For the molecule `CC(C)C[C@@H]1NC(=O)[C@H](CCCNC(=N)N)NC(=O)[C@H](CCCNC(=N)N)NC(=O)[C@H](CCCCN)NC(=O)[C@H](CCCCN)NC(=O)[C@H](CC(C)C)NC(=O)[C@H](Cc2c[nH]c3ccccc23)NC(=O)[C@H]([C@@H](C)O)NC(=O)[C@@H]2CCCN2C(=O)[C@H]2CCCN2C(=O)[C@H](CCCCN)NC(=O)[C@H](C)NC(=O)[C@H](CCCCN)NC(=O)[C@H](CCCCN)NC1=O`, the MIC stood at 0.1 µg/mL (≈ 0.0577 µM). Under `CC(C)C[C@@H]1NC(=O)[C@H](Cc2c[nH]c3ccccc23)NC(=O)[C@H]([C@@H](C)O)NC(=O)[C@@H]2CCCN2C(=O)[C@H]2CCCN2C(=O)[C@H](CCCCN)NC(=O)[C@H](C)NC(=O)[C@H](CCCCN)NC(=O)[C@H](CCCCN)NC(=O)[C@H](Cc2ccc(O)cc2)NC(=O)[C@H](CCCNC(=N)N)NC(=O)[C@H](CCCNC(=N)N)NC(=O)[C@H](CCCCN)NC(=O)[C@H](CCCCN)NC1=O` stands 0.3 µg/mL (≈ 0.168 µM); under `CC(C)C[C@@H]1NC(=O)[C@H](Cc2c[nH]c3ccccc23)NC(=O)[C@H]([C@@H](C)O)NC(=O)[C@@H]2CCCN2C(=O)[C@H]2CCCN2C(=O)[C@H](CCCCN)NC(=O)[C@H](C)NC(=O)[C@H](CCCCN)NC(=O)[C@H](CCCCN)NC(=O)[C@H](Cc2ccccc2)NC(=O)[C@H](CCCNC(=N)N)NC(=O)[C@H](CCCNC(=N)N)NC(=O)[C@H](CCCCN)NC(=O)[C@H](CCCCN)NC1=O`, 0.1 µg/mL (≈ 0.0566 µM).

Regarding `CC(C)C[C@@H]1NC(=O)[C@H](CC(C)C)NC(=O)[C@H]([C@@H](C)O)NC(=O)[C@@H]2CCCN2C(=O)[C@H]2CCCN2C(=O)[C@H](CCCCN)NC(=O)[C@H](C)NC(=O)[C@H](CCCCN)NC(=O)[C@H](CCCCN)NC(=O)[C@H](Cc2c[nH]c3ccccc23)NC(=O)[C@H](CCCNC(=N)N)NC(=O)[C@H](CCCNC(=N)N)NC(=O)[C@H](CCCCN)NC(=O)[C@H](CCCCN)NC1=O`, the minimum inhibitory concentration (MIC) was found to be 1 µg/mL (≈ 0.577 µM).

With `CC(C)C[C@@H]1NC(=O)[C@H](Cc2ccc(O)cc2)NC(=O)[C@H]([C@@H](C)O)NC(=O)[C@@H]2CCCN2C(=O)[C@H]2CCCN2C(=O)[C@H](CCCCN)NC(=O)[C@H](C)NC(=O)[C@H](CCCCN)NC(=O)[C@H](CCCCN)NC(=O)[C@H](Cc2c[nH]c3ccccc23)NC(=O)[C@H](CCCNC(=N)N)NC(=O)[C@H](CCCNC(=N)N)NC(=O)[C@H](CCCCN)NC(=O)[C@H](CCCCN)NC1=O`, the MIC is 0.06 µg/mL (≈ 0.0337 µM).

Turning to `CC(C)C[C@@H]1NC(=O)[C@H](Cc2ccccc2)NC(=O)[C@H]([C@@H](C)O)NC(=O)[C@@H]2CCCN2C(=O)[C@H]2CCCN2C(=O)[C@H](CCCCN)NC(=O)[C@H](C)NC(=O)[C@H](CCCCN)NC(=O)[C@H](CCCCN)NC(=O)[C@H](Cc2c[nH]c3ccccc23)NC(=O)[C@H](CCCNC(=N)N)NC(=O)[C@H](CCCNC(=N)N)NC(=O)[C@H](CCCCN)NC(=O)[C@H](CCCCN)NC1=O`, the MIC came to 0.06 µg/mL (≈ 0.034 µM). Consider `CC(C)C[C@@H]1NC(=O)[C@H](Cc2c[nH]c3ccccc23)NC(=O)[C@H]([C@@H](C)O)NC(=O)[C@@H]2CCCN2C(=O)[C@H]2CCCN2C(=O)[C@H](C)NC(=O)[C@H](C)NC(=O)[C@H](CCCCN)NC(=O)[C@H](CCCCN)NC(=O)[C@H](Cc2c[nH]c3ccccc23)NC(=O)[C@H](CCCNC(=N)N)NC(=O)[C@H](CCCNC(=N)N)NC(=O)[C@H](CCCCN)NC(=O)[C@H](CCCCN)NC1=O`, for which the minimum inhibitory concentration (MIC) amounted to 0.03 µg/mL (≈ 0.0172 µM). Under `CC(C)C[C@@H]1NC(=O)[C@H](Cc2c[nH]c3ccccc23)NC(=O)[C@H]([C@@H](C)O)NC(=O)[C@@H]2CCCN2C(=O)[C@H]2CCCN2C(=O)[C@H](CCCCN)NC(=O)[C@H](C)NC(=O)[C@H](C)NC(=O)[C@H](CCCCN)NC(=O)[C@H](Cc2c[nH]c3ccccc23)NC(=O)[C@H](CCCNC(=N)N)NC(=O)[C@H](CCCNC(=N)N)NC(=O)[C@H](CCCCN)NC(=O)[C@H](CCCCN)NC1=O` stands 0.06 µg/mL (≈ 0.0343 µM). Under `CC(C)C[C@@H]1NC(=O)[C@H](Cc2c[nH]c3ccccc23)NC(=O)[C@H]([C@@H](C)O)NC(=O)[C@@H]2CCCN2C(=O)[C@H]2CCCN2C(=O)[C@H](CCCCN)NC(=O)[C@H](C)NC(=O)[C@H](CCCCN)NC(=O)[C@H](C)NC(=O)[C@H](Cc2c[nH]c3ccccc23)NC(=O)[C@H](CCCNC(=N)N)NC(=O)[C@H](CCCNC(=N)N)NC(=O)[C@H](CCCCN)NC(=O)[C@H](CCCCN)NC1=O` stands 0.06 µg/mL (≈ 0.0343 µM); under `CC(C)C[C@@H]1NC(=O)[C@H](Cc2c[nH]c3ccccc23)NC(=O)[C@H]([C@@H](C)O)NC(=O)[C@@H]2CCCN2C(=O)[C@H]2CCCN2C(=O)[C@H](CCCCN)NC(=O)[C@H](C)NC(=O)[C@H](CCCCN)NC(=O)[C@H](CCCCN)NC(=O)[C@H](C)NC(=O)[C@H](CCCNC(=N)N)NC(=O)[C@H](CCCNC(=N)N)NC(=O)[C@H](CCCCN)NC(=O)[C@H](CCCCN)NC1=O`, more than 16 µg/mL. Under `CC(C)C[C@@H]1NC(=O)[C@H](Cc2c[nH]c3ccccc23)NC(=O)[C@H]([C@@H](C)O)NC(=O)[C@@H]2CCCN2C(=O)[C@H]2CCCN2C(=O)[C@H](CCCCN)NC(=O)[C@H](C)NC(=O)[C@H](CCCCN)NC(=O)[C@H](CCCCN)NC(=O)[C@H](Cc2c[nH]c3ccccc23)NC(=O)[C@H](C)NC(=O)[C@H](CCCNC(=N)N)NC(=O)[C@H](CCCCN)NC(=O)[C@H](CCCCN)NC1=O` stands 0.06 µg/mL (≈ 0.0349 µM); under `CC(C)C[C@@H]1NC(=O)[C@H](Cc2c[nH]c3ccccc23)NC(=O)[C@H]([C@@H](C)O)NC(=O)[C@@H]2CCCN2C(=O)[C@H]2CCCN2C(=O)[C@H](CCCCN)NC(=O)[C@H](C)NC(=O)[C@H](CCCCN)NC(=O)[C@H](CCCCN)NC(=O)[C@H](Cc2c[nH]c3ccccc23)NC(=O)[C@H](CCCNC(=N)N)NC(=O)[C@H](C)NC(=O)[C@H](CCCCN)NC(=O)[C@H](CCCCN)NC1=O`, 0.03 µg/mL (≈ 0.0174 µM); under `CC(C)C[C@@H]1NC(=O)[C@H](Cc2c[nH]c3ccccc23)NC(=O)[C@H]([C@@H](C)O)NC(=O)[C@@H]2CCCN2C(=O)[C@H]2CCCN2C(=O)[C@H](CCCCN)NC(=O)[C@H](C)NC(=O)[C@H](CCCCN)NC(=O)[C@H](CCCCN)NC(=O)[C@H](Cc2c[nH]c3ccccc23)NC(=O)[C@H](CCCNC(=N)N)NC(=O)[C@H](CCCNC(=N)N)NC(=O)[C@H](C)NC(=O)[C@H](CCCCN)NC1=O`, 0.1 µg/mL (≈ 0.0572 µM). As for `CC(C)C[C@@H]1NC(=O)[C@H](Cc2c[nH]c3ccccc23)NC(=O)[C@H]([C@@H](C)O)NC(=O)[C@@H]2CCCN2C(=O)[C@H]2CCCN2C(=O)[C@H](CCCCN)NC(=O)[C@H](C)NC(=O)[C@H](CCCCN)NC(=O)[C@H](CCCCN)NC(=O)[C@H](Cc2c[nH]c3ccccc23)NC(=O)[C@H](CCCNC(=N)N)NC(=O)[C@H](CCCNC(=N)N)NC(=O)[C@H](CCCCN)NC(=O)[C@H](C)NC1=O`, the MIC was found to be 0.05 µg/mL (≈ 0.0286 µM). Next, `C[C@@H]1NC(=O)[C@H](CCCCN)NC(=O)[C@H](CCCCN)NC(=O)[C@H](Cc2c[nH]c3ccccc23)NC(=O)[C@H](CCCNC(=N)N)NC(=O)[C@H](CCCNC(=N)N)NC(=O)[C@H](CCCCN)NC(=O)[C@H](CCCCN)NC(=O)[C@H](C)NC(=O)[C@H](Cc2c[nH]c3ccccc23)NC(=O)[C@H]([C@@H](C)O)NC(=O)[C@@H]2CCCN2C(=O)[C@H]2CCCN2C(=O)[C@H](CCCCN)NC1=O`: 0.1 µg/mL (≈ 0.0567 µM); `CC(C)C[C@@H]1NC(=O)[C@H](C)NC(=O)[C@H]([C@@H](C)O)NC(=O)[C@@H]2CCCN2C(=O)[C@H]2CCCN2C(=O)[C@H](CCCCN)NC(=O)[C@H](C)NC(=O)[C@H](CCCCN)NC(=O)[C@H](CCCCN)NC(=O)[C@H](Cc2c[nH]c3ccccc23)NC(=O)[C@H](CCCNC(=N)N)NC(=O)[C@H](CCCNC(=N)N)NC(=O)[C@H](CCCCN)NC(=O)[C@H](CCCCN)NC1=O`: more than 16 µg/mL. Consider `CC(C)C[C@@H]1NC(=O)[C@H](Cc2c[nH]c3ccccc23)NC(=O)[C@H](C)NC(=O)[C@@H]2CCCN2C(=O)[C@H]2CCCN2C(=O)[C@H](CCCCN)NC(=O)[C@H](C)NC(=O)[C@H](CCCCN)NC(=O)[C@H](CCCCN)NC(=O)[C@H](Cc2c[nH]c3ccccc23)NC(=O)[C@H](CCCNC(=N)N)NC(=O)[C@H](CCCNC(=N)N)NC(=O)[C@H](CCCCN)NC(=O)[C@H](CCCCN)NC1=O`, for which the MIC was determined as 0.01 µg/mL (≈ 0.00563 µM).

In the case of `CC(C)C[C@@H]1NC(=O)[C@H](Cc2c[nH]c3ccccc23)NC(=O)[C@H]([C@@H](C)O)NC(=O)[C@H]2CCCN2C(=O)[C@@H]2CCCN2C(=O)[C@H](CCCCN)NC(=O)[C@H](C)NC(=O)[C@H](CCN)NC(=O)[C@H](CCCN)NC(=O)[C@H](Cc2c[nH]c3ccccc23)NC(=O)[C@H](CCCNC(=N)N)NC(=O)[C@@H](CCCCN)NC(=O)[C@H](CCCN)NC(=O)[C@H](CCN)NC1=O`, the MIC was not below 32 µg/mL.

Consider `CC(C)C[C@@H]1NC(=O)[C@H](Cc2c[nH]c3ccccc23)NC(=O)[C@H]([C@@H](C)O)NC(=O)[C@@H]2CCCN2C(=O)[C@H]2CCCN2C(=O)[C@H](CCCCN)NC(=O)[C@H](C)NC(=O)[C@H](CCN)NC(=O)[C@H](CCCN)NC(=O)[C@H](Cc2c[nH]c3ccccc23)NC(=O)[C@H](CCCNC(=N)N)NC(=O)[C@@H](CCCCN)NC(=O)[C@H](CCCN)NC(=O)[C@H](CCN)NC1=O`, for which the minimum inhibitory concentration (MIC) amounted to 0.01 µg/mL (≈ 0.00591 µM). For the molecule `CC(C)C[C@@H]1NC(=O)[C@H](Cc2c[nH]c3ccccc23)NC(=O)[C@H]([C@@H](C)O)NC(=O)[C@@H]2CCCN2C(=O)[C@H]2CCCN2C(=O)[C@H](CCCCN)NC(=O)[C@H](C)NC(=O)[C@H](CCCCN)NC(=O)[C@H](CCCCN)NC(=O)[C@H](Cc2c[nH]c3ccccc23)NC(=O)[C@H](CCCNC(=N)N)NC(=O)[C@H](CCCNC(=N)N)NC(=O)[C@H](CCCCN)NC(=O)[C@H](CCCCN)NC1=O`, the minimal inhibitory concentration (MIC) is 0.01 µg/mL (≈ 0.00554 µM).
